# Non-standard residues stand in square brackets, D forms with d. Residues, ends and D or L forms follow the SMILES beside them. dPhe(4-Cl) = N[C@H](Cc1ccc(Cl)cc1)C(=O)O; d2Nal = N[C@H](Cc1ccc2ccccc2c1)C(=O)O; dCit = NC(=O)NCCC[C@@H](N)C(=O)O; d3Pal = N[C@H](Cc1cccnc1)C(=O)O
# Experiments:
# [1] = tested on: benign prostate hypertrophy (BPH) patients; assay: Clinical therapy of BPH with Cetrorelix (Example 1); assay type: in vivo, human; details: 4 to 8 weeks therapy regimen
# Description: Cetrorelix is administered in a dose of 0.5 mg to 2 mg daily for 4 to 8 weeks for the therapy of BPH. A dose of 5 mg to 30 mg, dispensed once per week or every 10 days also over a time period of 4 to 8 weeks as well as one every two weeks or one injection per month of 20 mg to 60 mg can also decisively improve the clinical symptoms and signs. […] The prostate volume decreases by 20 to 40% during the treatment time of 4 to 8 weeks. […] In addition, at least 30% of the patients achieve an improvement of the urine flow of 6 ml/sec with this therapy. This is almost equivalent to an improvement like that associated with the golden standard operation, and in considerably shorter time. […] These clinical benefits continue for at least 3 to 6 months after therapy. This allows a long-term therapy of BPH with only an intermittent treatment of 2 to max. 4 injection cycles over 4 to 8 weeks.
# This therapy represents a significant therapeutic advance in the treatment of BPH since it not only achieves an improvement of the clinical symptoms of BPH but also a diminution of the prostate and an improvement of the urine flow like those associated with surgery The protocols of the invention avoid the negative consequences of an operation, e.g. urine incontinence, retrograde ejaculation, blood loss with the consequence of blood transfusions and also the risks of infection associated with surgery.
# BPH patients = details: 500 μg every 12 hours for 4 weeks, cited from earlier work
# [2] = tested on: prostate carcinoma patients; details: cited from earlier work
# [3] = 500 μg every 12 hours, end of the 6 weeks of therapy
structure (smiles),measurement,setting,value
CC(=O)N[C@H](Cc1ccc2ccccc2c1)C(=O)N[C@H](Cc1ccc(Cl)cc1)C(=O)N[C@H](Cc1cccnc1)C(=O)N[C@@H](CO)C(=O)N[C@@H](Cc1ccc(O)cc1)C(=O)N[C@H](CCCNC(N)=O)C(=O)N[C@@H](CC(C)C)C(=O)N[C@@H](CCCNC(=N)N)C(=O)N1CCC[C@H]1C(=O)N[C@H](C)C(N)=O [Cetrorelix] (Ac-[d2Nal][dPhe(4-Cl)][d3Pal]SY[dCit]LRP[dA]-NH2),patients achieving an improvement of the urine flow of 6 ml/sec,[1],at least 30%
same,quality of life,[1],significant improvements
same,sexual performance,[1],No limitations in sexual performance are observed
same,testosterone level,[1],"Submaximal decreases of testosterone occur, but these are above those levels associated with castration"
same,increase of the peak flow of the urine,[1]; comparable to the α-blockers,approximately 3 ml/sec
same,testosterone levels during treatment,"BPH patients; BPH patients, no castration values during the last three weeks",fluctuated at subnormal levels
same,"testosterone levels, initially","BPH patients; all patients, initial phase",lowering in testosterone levels to a castration level
same,prostate volume,BPH patients,distinct decrease
same,symptoms of dysuria,BPH patients,distinct decrease
same,"testosterone levels, initially","[2]; 500 μg every 12 hours for 6 weeks, all patients, initial phase",lowering in testosterone levels to a castration level
same,overall condition of the patient,[2]; [3],considerable improvement
same,testosterone values at the end of therapy,[2]; [3],at the castration levels

# — patent US6054432A, “Means for treating prostate hypertrophy and prostate cancer” (Asta Medica Aktiengesellschaft, priority 1997, dated 2000)
